Measured values published in US5925730A, “GnRH antagonists” (Ferring BV, priority 1997, dated 1999).
Non-standard residues stand in square brackets, D forms with d. Residues, ends and D or L forms follow the SMILES beside them. *: point of attachment. dPhe(4-NHCONH2) = NC(=O)Nc1ccc(C[C@@H](N)C(=O)O)cc1; Phe(4-NHCONH2) = NC(=O)Nc1ccc(C[C@H](N)C(=O)O)cc1; Dihydroorotyl(S) = O=C1C[C@@H](C(=O)*)NC(=O)N1; dPhe(4-NH2) = Nc1ccc(C[C@@H](N)C(=O)O)cc1; dPhe(4-Cl) = N[C@H](Cc1ccc(Cl)cc1)C(=O)O; Phe(4-NH2) = Nc1ccc(C[C@H](N)C(=O)O)cc1; d2Nal = N[C@H](Cc1ccc2ccccc2c1)C(=O)O; Lys(iPr) = CC(C)NCCCC[C@H](N)C(=O)O; d3Pal = N[C@H](Cc1cccnc1)C(=O)O

Columns and labels:
[1] = examination of injected rats for tolerance and gelling at the point of injection; type: in vivo; settings: 50 μg per rat sc
secretion of LH = assay: in vivo rat LH suppression test (circulating LH levels in castrated male rats after sc injection); parameters: species or system castrated male Sprague-Dawley rats; settings: 50 micrograms sc
Protocol: The peptide is assayed in vivo to determine its effectiveness to suppress the secretion of LH in rats. Measurement of circulating LH levels in castrated male Sprague-Dawley rats treated subcutaneously with the peptide is carried out as reported in C. Rivier et al. Biol. Reproduc., 1983, 29, 374-378. The peptides are first dissolved at a concentration of 1.0 or 10 mg/ml in bacteriostatic water and then further diluted in 0.04 M phosphate buffer containing 0.1% BSA. Subsequent dilutions are made in phosphate buffer. The peptides are injected sc into 5 rats, and blood samples (300 μl) are collected under metotane anesthesia. Sera (50 μl) are tested for LH levels in duplicate using reagents provided by the National Pituitary and Hormone Distribution Program of the NIDDK.

[2] = water solubility compared with Acyline; type: physicochemical

## CC(=O)N[C@H](Cc1ccc2ccccc2c1)C(=O)N[C@H](Cc1ccc(Cl)cc1)C(=O)N[C@H](Cc1cccnc1)C(=O)N[C@@H](CO)C(=O)N[C@@H](Cc1ccc(NC(=O)[C@@H]2CC(=O)NC(=O)N2)cc1)C(=O)N[C@H](Cc1ccc(NC(N)=O)cc1)C(=O)N[C@@H](CC(C)C)C(=O)N[C@@H](CCCCNC(C)C)C(=O)N1CCC[C@H]1C(=O)N[C@H](C)C(N)=O [Example 1, Ac-D-2Nal-(4Cl)D-Phe-D-3Pal-Ser-4Aph(hydroorotyl)-D-4Aph(carbamoyl)-Leu-Lys(isopropyl)-Pro-D-Ala-NH2] (Ac-[d2Nal][dPhe(4-Cl)][d3Pal]S[Phe(4-NH2)](Dihydroorotyl(S))[dPhe(4-NHCONH2)]L[Lys(iPr)]P[dA]-NH2)
[1]
  gelling at the point of injection: no significant gelling
  tolerance of the peptide in injected rats: very well tolerated

## CC(=O)Nc1ccc(C[C@H](NC(=O)[C@H](CO)NC(=O)[C@@H](Cc2cccnc2)NC(=O)[C@@H](Cc2ccc(Cl)cc2)NC(=O)[C@@H](Cc2ccc3ccccc3c2)NC(C)=O)C(=O)N[C@H](Cc2ccc(NC(N)=O)cc2)C(=O)N[C@@H](CC(C)C)C(=O)N[C@@H](CCCCNC(C)C)C(=O)N2CCC[C@H]2C(=O)N[C@H](C)C(N)=O)cc1 [Example 1P, Ac-β-D-2Nal-D-4Cpa-D-3Pal-Ser-4Aph(Ac)-D-4Aph(carbamoyl)-Leu-Lys(isopropyl)-Pro-D-Ala-NH2] (Ac-[d2Nal][dPhe(4-Cl)][d3Pal]S[Phe(4-NH2)](Ac)[dPhe(4-NHCONH2)]L[Lys(iPr)]P[dA]-NH2)
Secretion of LH
  duration of bioactivity for the suppression of LH (rating in words): long duration
Secretion of LH; 96 hours
  suppression of LH compared with Acyline at 96 hours / 4 days (after day 3): slightly superior to Acyline
Secretion of LH; days 1-3
  effectiveness in suppression of LH compared with Acyline, day 1 through day 3: substantially the same as Acyline
[2]
  water solubility compared with Acyline: more water soluble than Acyline

## CC(=O)Nc1ccc(C[C@@H](NC(=O)[C@H](Cc2ccc(NC(N)=O)cc2)NC(=O)[C@H](CO)NC(=O)[C@@H](Cc2cccnc2)NC(=O)[C@@H](Cc2ccc(Cl)cc2)NC(=O)[C@@H](Cc2ccc3ccccc3c2)NC(C)=O)C(=O)N[C@@H](CC(C)C)C(=O)N[C@@H](CCCCNC(C)C)C(=O)N2CCC[C@H]2C(=O)N[C@H](C)C(N)=O)cc1 [Example 1Q, Ac-β-D-2Nal-D-4Cpa-D-3Pal-Ser-4Aph(carbamoyl)-D-4Aph(Ac)-Leu-Lys(isopropyl)-Pro-D-Ala-NH2] (Ac-[d2Nal][dPhe(4-Cl)][d3Pal]S[Phe(4-NHCONH2)][dPhe(4-NH2)](Ac)L[Lys(iPr)]P[dA]-NH2)
Secretion of LH; days 1-2
  effectiveness in suppression of LH compared with Acyline, first two days: equal to about values of Acyline
Secretion of LH; days 3-4
  suppression of LH compared with Acyline at days 3 and 4 (72 and 96 hours; after the first 2 days): not as effective as Acyline
[2]
  water solubility compared with Acyline: more water soluble than Acyline
